Like-named read-outs stand apart in the source and are kept apart here. Bridge positions count the residues as written; N and C are the ends. Square brackets hold non-standard residues; d marks the D form. Peptide text beside a SMILES is read from it. * marks the point of attachment. X1 = CCCN1C[C@H](CSCC(=O)*)C[C@@H]2c3cccc4[nH]cc(c34)C[C@H]21; Tyr(3-I) = N[C@@H](Cc1ccc(O)c(I)c1)C(=O)O; Dopa = N[C@@H](Cc1ccc(O)c(O)c1)C(=O)O; Abu = CC[C@H](N)C(=O)O
What was measured:
hDA2 = assay: Dopamine-2 receptor radioligand binding assay; design: species or system human; settings: [3H]spiperone
Method: Specificity and selectivity for the dopamine-2 receptor of the dopamine analogues used to synthesize the somatostatin-dopamine chimers may be determined by a radioligand binding assay as follows.
Crude membranes were prepared by homogenization of frozen rat corpus striatum (Zivic Laboratories, Pittsburgh, Pa., USA) in 20 mL of ice-cold 50 mM Tris-HCl with a Brinkman Polytron cell disrupter (setting 6, 15 sec). Buffer was added to obtain a final volume of 40 mL, and the homogenate was centrifuged in a Sorval SS-34 rotor at 39,000 g for 10 minutes at 0-4° C. The resulting supernatant was decanted and discarded. The pellet was rehomogenized in ice-cold buffer, pre-incubated at 37° C. for 10 min, diluted, and centrifuged as before. The final pellet was resuspended in buffer and held on ice for the receptor binding assay.
For assay, aliquots of the washed membrane preparations and test compounds were incubated for 15 minutes (37° C.) with 0.25 nM [^3HI]spiperone (16.5 Ci.mmol, New England Nuclear, Boston, Mass., USA) in 50 mM Tris HCl, 120 mM NaCl, 5 mM KCl, 2 mM CaCl2, 1 mM MgCl2. The final assay volume was 1.0 mL. The incubations were terminated by rapid filtration through GF/B glass fibre filters using a Brandel filtration manifold. Each tube and filter was then washed three times with 5-mL aliquots of ice-cold buffer. Specific binding was defined as the total radioligand bound minus that bound in the presence of 1000 nM (+) butaclamol.
(§1) Using the discussed assays, the inhibition constants (Ki) for the five human somatostatin receptors (hSSTR1-hSSTR5) and the dopamine-2 receptor (hUTII and hDA2) were measured for the exemplified somatostatin-dopamine conjugates, as follows: […]

hsst5 = target: T1, hsst5 (Homo sapiens, UniProt P35346); assay: Somatostatin receptor radioligand binding assay, hsst5; settings: CHO-K1 membranes, [125I-Tyr11]SS-14
T1 construct: expressed in transfected cells
T1 sequence (P35346 whole entry): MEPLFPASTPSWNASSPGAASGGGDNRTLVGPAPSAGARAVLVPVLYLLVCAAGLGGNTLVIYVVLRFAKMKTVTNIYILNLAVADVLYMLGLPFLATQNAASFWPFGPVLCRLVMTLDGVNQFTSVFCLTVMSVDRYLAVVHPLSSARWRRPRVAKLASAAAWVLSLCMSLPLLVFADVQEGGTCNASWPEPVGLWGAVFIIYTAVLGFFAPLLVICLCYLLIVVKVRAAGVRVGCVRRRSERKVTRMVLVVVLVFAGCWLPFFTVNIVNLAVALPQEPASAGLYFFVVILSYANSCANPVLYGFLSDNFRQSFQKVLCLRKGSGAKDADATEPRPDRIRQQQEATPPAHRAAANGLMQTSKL
Method: (§2) Specificity and selectivity of the somatostatin analogues used to synthesize the somatostatin-dopamine chimers were determined by a radioligand binding assay on CHO-K1 cells stably transfected with each of the SSTR subtypes, as follows. Somatostatin analogs are also described in U.S. Patent Application Publication No. 02210006790. The complete coding sequences of genomic fragments of the SSTR 1 (e.g., Genbank accession No. M81829), SSTR 2 (e.g., Genbank accession No. M81830), SSTR 3 (e.g., Genbank accession No. L07062), and SSTR 4 (e.g., Genbank accession No. AL049651) genes and a cDNA clone for SSTR 5 (e.g., Genbank accession No. D16827) was subcloned into the mammalian expression vector pCMV (Life Technologies, Milano, Italy). Other SSTR sequences are known to the skilled artisan. Clonal cell lines stably expressing SSTR's 1-5 were obtained by transfection into CHO-K1 cells (ATCC, Manassas, Va., USA) using the calcium phosphate co-precipitation method (Davis L, et al., 1994 In: Basic methods in Molecular Biology, 2nd edition, Appleton & Lange, Norwalk, Conn., USA: 611-646). The plasmid pRSV-neo (ATCC) was included as a selectable marker. Clonal cell lines were selected in RPMI 1640 media containing 0.5 mg/mL of G418 (Life Technologies, Milano, Italy), ring cloned, and expanded into culture.
(§3) Membranes for in vitro receptor binding assays were obtained by homogenizing the CHO-K1 cells expressing the SSTR's subtypes in ice-cold 50 mM Tris-HCl and centrifuging twice at 39,000 g (10 min), with an intermediate resuspension in fresh buffer. The final pellets were resuspended in 10 mM Tris-HCl for assay.
(§4) For the SSTR 1, 3, 4, and 5 assays, aliquots of the membrane preparations were incubated 90 minutes at 25° C. with 0.05 nM [^125I-Tyr11]SS-14 in 50 mM HEPES (pH 7.4) containing 10 mg/mL BSA, 5 mM MgCl2, 200 KIU/mL Trasylol, 0.02 mg/mL bacitracin, and 0.02 mg/mL phenylmethylsuphonyl fluoride. The final assay volume was 0.3 mL.
(§5) For the SSTR 2 assay, 0.05 nM [^125I]MK-678 was employed as the radioligand and the incubation time was 90 minutes at 25° C. The incubations were terminated by rapid filtration through GF/C glass microfiber filters (Whatman Co.) (pre-soaked in 0.3% polyethylenimine) using a BRANDEL filtration manifold. Each tube and filter was washed three times with 5 mL aliquots of ice-cold buffer. Specific binding was defined as the total radioligand bound minus that bound in the presence of 1000 nM SS-14 for SSTR 1, 3, 4, and 5, or 1000 nM MK-678 for SSTR2.

hsst2 = target: T2, hsst2 (Homo sapiens, UniProt P30874); assay: Somatostatin receptor radioligand binding assay, hsst2; settings: CHO-K1 membranes, [125I]MK-678
T2 construct: expressed in transfected cells
T2 sequence (P30874 whole entry): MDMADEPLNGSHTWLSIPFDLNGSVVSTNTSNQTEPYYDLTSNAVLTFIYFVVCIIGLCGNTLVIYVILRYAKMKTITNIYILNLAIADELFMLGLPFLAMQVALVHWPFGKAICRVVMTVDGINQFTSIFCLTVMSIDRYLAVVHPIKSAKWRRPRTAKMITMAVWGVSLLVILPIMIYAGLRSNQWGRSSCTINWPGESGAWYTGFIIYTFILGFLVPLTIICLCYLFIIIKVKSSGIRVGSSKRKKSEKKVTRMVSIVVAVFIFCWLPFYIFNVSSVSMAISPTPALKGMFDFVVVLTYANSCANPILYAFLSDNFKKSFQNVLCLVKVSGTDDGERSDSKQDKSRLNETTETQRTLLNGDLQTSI
Method: as §2, §3, §5

hsst3 = target: T3, hsst3 (Homo sapiens, UniProt P32745); assay: Somatostatin receptor radioligand binding assay, hsst3
T3 construct: expressed in transfected cells
T3 sequence (P32745 whole entry): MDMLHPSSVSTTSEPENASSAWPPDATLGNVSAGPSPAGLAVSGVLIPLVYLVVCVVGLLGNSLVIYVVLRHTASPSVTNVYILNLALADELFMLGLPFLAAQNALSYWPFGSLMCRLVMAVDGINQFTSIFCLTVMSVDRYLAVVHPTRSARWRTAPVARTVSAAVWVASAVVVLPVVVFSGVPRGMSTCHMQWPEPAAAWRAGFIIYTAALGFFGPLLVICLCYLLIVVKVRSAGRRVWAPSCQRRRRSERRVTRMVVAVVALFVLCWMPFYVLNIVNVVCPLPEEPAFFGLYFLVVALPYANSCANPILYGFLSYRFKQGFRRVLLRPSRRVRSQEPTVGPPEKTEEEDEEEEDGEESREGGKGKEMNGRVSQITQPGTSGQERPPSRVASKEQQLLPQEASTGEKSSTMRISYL
Method: as §2, §3, §4, §5, §1

hUTII = target: T4, hUTII (Homo sapiens, UniProt Q9UKP6); assay: hUTII inhibition constant; format: binding
T4 sequence (Q9UKP6 1-389): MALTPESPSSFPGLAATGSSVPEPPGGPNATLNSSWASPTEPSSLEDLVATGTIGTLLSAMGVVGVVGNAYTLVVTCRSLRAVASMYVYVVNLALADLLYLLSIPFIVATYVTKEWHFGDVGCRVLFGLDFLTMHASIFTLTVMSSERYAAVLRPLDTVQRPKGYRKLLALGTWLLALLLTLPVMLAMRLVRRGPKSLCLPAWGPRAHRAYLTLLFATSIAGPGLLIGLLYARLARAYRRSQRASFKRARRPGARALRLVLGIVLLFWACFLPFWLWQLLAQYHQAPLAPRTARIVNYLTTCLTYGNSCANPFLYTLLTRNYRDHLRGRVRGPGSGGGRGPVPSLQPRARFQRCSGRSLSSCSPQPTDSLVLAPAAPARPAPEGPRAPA
Method: as §1

[1] = CHO-K1 membranes, [125I-Tyr11]SS-14, read-out: hsst3 Ki

Compound	Ki (hDA2) [nM]	Ki (hsst5; read-out: hsst5 Ki) [nM]	Ki (hsst2; read-out: hsst2 Ki) [nM]	Ki (hsst3; [1]) [nM]	Ki (hUTII; read-out: hUTII Ki) [nM]	Ki (hsst2; hsst2 Ki) [nM]	Ki (hsst5; hsst5 Ki) [nM]	Ki (hsst3) [nM]	Ki (hUTII; hUTII Ki) [nM]
CC[C@@H]1NC(=O)[C@H](CCCCN)NC(=O)[C@@H](Cc2c[nH]c3ccccc23)NC(=O)[C@H](Cc2ccc(O)cc2)NC(=O)[C@@H](NC(=O)[C@@H](Cc2ccccc2)NC(=O)[C@H](CCCCNC(=O)[C@@H](N)Cc2ccc(O)c(O)c2)NC(=O)[C@@H](N)Cc2ccc(O)c(O)c2)CSSC[C@@H](C(=O)N[C@H](C(N)=O)[C@@H](C)O)NC1=O [Example 18] (H-[Dopa]K(Dopa)[dF]CY[dW]K[Abu]CT-NH2; disulfide 4-9)	3000	32	0.36	167	1000	–	–	–	–
CC[C@@H]1NC(=O)[C@H](CCCCN)NC(=O)[C@@H](Cc2c[nH]c3ccccc23)NC(=O)[C@H](Cc2ccc(O)cc2)NC(=O)[C@@H](NC(=O)[C@@H](Cc2ccccc2)NC(=O)[C@@H](N)Cc2ccc(O)c(O)c2)CSSC[C@@H](C(=O)N[C@H](C(N)=O)[C@@H](C)O)NC1=O [Example 19]	3000	19.7	0.41	146	2250	–	–	–	–
CC[C@@H]1NC(=O)[C@H](CCCCN)NC(=O)[C@@H](Cc2c[nH]c3ccccc23)NC(=O)[C@H](Cc2ccc(O)cc2)NC(=O)[C@@H](NC(=O)[C@@H](Cc2ccccc2)NC(=O)CN(C)C(=O)N[C@H]2C[C@@H]3c4cccc5[nH]cc(c45)C[C@H]3N(C)C2)CSSC[C@@H](C(=O)N[C@H](C(N)=O)[C@@H](C)O)NC1=O [Example 20]	95.2	–	–	–	–	–	–	–	–
CC[C@@H]1NC(=O)[C@H](CCCCN)NC(=O)[C@@H](Cc2c[nH]c3ccccc23)NC(=O)[C@H](Cc2ccc(O)cc2)NC(=O)[C@@H](NC(=O)[C@@H](Cc2ccccc2)NC(=O)CN(C)C(=O)N[C@H]2C[C@@H]3c4cccc5[nH]cc(c45)C[C@H]3N(C)C2)CSSC[C@@H](C(=O)N[C@H](C(N)=O)[C@@H](C)O)NC1=O [Example 27]	–	–	–	–	–	0.02	22.8	140	1280
CCCN1C[C@H](CNC(=O)CCCC(=O)N[C@H](Cc2ccccc2)C(=O)N[C@H]2CSSC[C@@H](C(=O)N[C@H](C(N)=O)[C@@H](C)O)NC(=O)[C@H](CC)NC(=O)[C@H](CCCCN)NC(=O)[C@@H](Cc3c[nH]c4ccccc34)NC(=O)[C@H](Cc3ccc(O)cc3)NC2=O)C[C@@H]2c3cccc4[nH]cc(c34)C[C@H]21 [Example 29]	226	–	0.14	–	–	–	–	–	–
CC(C)[C@@H]1NC(=O)[C@H](CCCCN)NC(=O)[C@@H](Cc2c[nH]c3ccccc23)NC(=O)[C@H](Cc2ccc(O)c(I)c2)NC(=O)[C@@H](NC(=O)[C@@H](Cc2ccccc2)NC(=O)CN2CCN(CCNC(=O)CN3CCN(CCNC(=O)CSC[C@@H]4C[C@@H]5c6cccc7[nH]cc(c67)C[C@H]5N(C)C4)CC3)CC2)CSSC[C@@H](C(=O)N[C@H](C(N)=O)[C@@H](C)O)NC1=O [Example 39]	310	–	0.42	–	241	–	–	136	–

Further compounds by falling Ki (hDA2), results first:

Ki (hDA2) [nM]	Ki (hsst5; read-out: hsst5 Ki) [nM]	Ki (hsst2; read-out: hsst2 Ki) [nM]	Ki (hsst3; [1]) [nM]	Ki (hUTII; read-out: hUTII Ki) [nM]	Compound	Ki (hsst2; hsst2 Ki) [nM]	Ki (hsst5; hsst5 Ki) [nM]	Ki (hsst3) [nM]	Ki (hUTII; hUTII Ki) [nM]
217	–	–	–	–	CC(C)[C@@H]1NC(=O)[C@H](CCCCN)NC(=O)[C@@H](Cc2c[nH]c3ccccc23)NC(=O)[C@H](Cc2ccc(O)c(I)c2)NC(=O)[C@@H](NC(=O)[C@@H](Cc2ccccc2)NC(=O)COCCOCCNC(=O)CSC[C@@H]2C[C@@H]3c4cccc5[nH]cc(c45)C[C@H]3N(C)C2)CSSC[C@@H](C(=O)N[C@H](C(N)=O)[C@@H](C)O)NC1=O [Example 41]	–	–	–	–
126	–	1.26	374	421	CCCN1C[C@H](CSCC(=O)NCCN2CCN(CC(=O)NCCN3CCN(CC(=O)N[C@H](Cc4ccccc4)C(=O)N[C@H]4CSSC[C@@H](C(=O)N[C@H](C(N)=O)[C@@H](C)O)NC(=O)[C@H](C(C)C)NC(=O)[C@H](CCCCN)NC(=O)[C@@H](Cc5c[nH]c6ccccc56)NC(=O)[C@H](Cc5ccc(O)c(I)c5)NC4=O)CC3)CC2)C[C@@H]2c3cccc4[nH]cc(c34)C[C@H]21 [Example 37]	–	–	–	–
18.3	6.29	–	–	–	CCCN1C[C@H](CSCC(=O)NCCCC[C@@H](NC(=O)CSC[C@@H]2C[C@@H]3c4cccc5[nH]cc(c45)C[C@H]3N(CCC)C2)C(=O)N[C@H](Cc2ccccc2)C(=O)N[C@H]2CSSC[C@@H](C(=O)N[C@H](C(N)=O)[C@@H](C)O)NC(=O)[C@H]([C@@H](C)O)NC(=O)[C@H](CCCCN)NC(=O)[C@@H](Cc3c[nH]c4ccccc34)NC(=O)[C@H](Cc3ccc(O)c(I)c3)NC2=O)C[C@@H]2c3cccc4[nH]cc(c34)C[C@H]21 [Example 15]	–	–	–	–
17.6	54	0.18	106	496	CCCN1C[C@H](CSCC(=O)NCCCC[C@H](NC(=O)CSC[C@@H]2C[C@@H]3c4cccc5[nH]cc(c45)C[C@H]3N(CCC)C2)C(=O)N[C@H](Cc2ccccc2)C(=O)N[C@H]2CSSC[C@@H](C(=O)N[C@H](C(N)=O)[C@@H](C)O)NC(=O)[C@H](CC)NC(=O)[C@H](CCCCN)NC(=O)[C@@H](Cc3c[nH]c4ccccc34)NC(=O)[C@H](Cc3ccc(O)cc3)NC2=O)C[C@@H]2c3cccc4[nH]cc(c34)C[C@H]21 [Example 17]	–	–	–	–
8.56	7.43	0.16	76.4	549	CCCN1C[C@H](CSCC(=O)NCCCC[C@@H](NC(=O)CSC[C@@H]2C[C@@H]3c4cccc5[nH]cc(c45)C[C@H]3N(CCC)C2)C(=O)N[C@H](Cc2ccc(O)cc2)C(=O)N[C@H](Cc2ccc(O)cc2)C(=O)N[C@H]2CSSC[C@@H](C(=O)N[C@H](C(N)=O)[C@@H](C)O)NC(=O)[C@H]([C@@H](C)O)NC(=O)[C@H](CCCCN)NC(=O)[C@@H](Cc3c[nH]c4ccccc34)NC(=O)[C@H](Cc3ccc(O)c(I)c3)NC2=O)C[C@@H]2c3cccc4[nH]cc(c34)C[C@H]21 [Example 16] (X1-[dK](X1)[dY][dY]C[Tyr(3-I)][dW]KTCT-NH2; disulfide 4-9)	–	–	–	–

— US20110065632A1, “PHARMACEUTICAL COMPOSITIONS OF SOMATOSTATIN-DOPAMINE CONJUGATES” (priority 2008, published 2011)
